Measurements as given in patent US20230227500A1, “NANOPARTICLE-LIKE DELIVERY SYSTEM” (Evox Therapeutics Ltd, priority 2019, published 2023).
Each block holds one molecule with its values, some of them ahead of it. Where a SMILES comes first, the peptide text is derived from it. Bridges are numbered along the chain shown (N, C = ends). [ ]: non-standard residue; d: D form. R8 = C=CCCCCCC[C@@](C)(N)C(=O)O; S8 = C=CCCCCCC[C@](C)(N)C(=O)O; S5 = C=CCCC[C@](C)(N)C(=O)O

What was measured:
[1] = In vivo delivery and biodistribution of Cy5-labelled SSO, IVIS imaging of dissected tissues; set-up: species or system NMRI mice; details: 2.5 mg/kg SSO, MR10, i.v., 48 h, FIG. 2(B)
Experimental: In order to investigate the in vivo delivery capacity and biodistribution profile of the peptide/SSO nanoparticles, Oct2815 peptide was formulated at a dose of 50 μg (2.5 mg/kg) of Cy5-labelled 2′-OMe/LNA mixmer-based SSO (at MR10) and then injected intravenously into NMRI mice. After 48 h of treatment, the fluorescence values were measured from the dissected tissues (brain, liver, lungs, heart, G.I. tract, spleen, muscles and kidneys) of the animals with an IVIS in vivo imager.

mice = assay: Tolerability of peptide/mRNA formulation after intravenous injection; type: in vivo; details: 6.25 mg/kg of mRNA/25 mg/kg of peptide, i.v.
Experimental: Delivery of mRNA was tested using the 246, Oct815 and Oct2815 peptides and a luciferase-encoding mRNA (Luc mRNA). Various peptides were formulated at 1.25 mg/kg of mRNA dosing, at a peptide-to-mRNA weight ratio 4. Oct2815 was also formulated at 6.25 mg/kg of mRNA dosing, at a peptide-to-mRNA weight ratio 4. The formulations were subsequently injected intravenously into NMRI mice. After 24 h of treatment, the mice were sacrificed and the lungs, heart, liver, spleen and kidneys dissected. Luciferase activity was measured in the dissected tissues by bioluminescence imaging on an IVIS in vivo imaging system.
The peptides of the invention are believed to be tolerated in a dose of up to 30 mg/kg in mice, which is at least 10-fold higher than the dose commonly known to be tolerated when using any CPP of the prior art in vivo.

HeLa pluc705 cells = assay: HeLa pluc705 splice correction reporter, delivery of SSOs; type: cell-based; details: 100 nM 2'OMe SSO, 24 h, MR3-MR10, FIG. 1B
Excerpt: To evaluate the ability of peptides of the invention to effectively deliver SSOs into cells, the HeLa pluc705 splice correction reporter system was used as a model (FIG. 1A). In this assay, HeLa cells are stably transfected with a luciferase endocing sequence that is interrupted by the β-globin pre-mRNA carrying a crypting splice site. If the SSO is effectively delivered to the cells and reaches the cell nucleus, it masks the aberrant splicing site (depicted ON-705 on the right-hand side of FIG. 1A). By redirecting the splicing, it will give rise to the production of functional luciferase protein. The luciferase enzyme activity thus acts as a measure to assess the delivery efficacy of the SSOs. This model is known for being an excellent positive read-out system with wide dynamic range for evaluating and comparing the delivery of SSOs and different delivery vectors.
The peptides were formulated with 2′-O-methyl phosphorothioate (2′OMe)-based SSOs at different peptide-to-SSO molar ratios (MRs), namely MR3, MR5, MR7 and MR10. The HeLa pluc705 cells were treated with various peptide/SSO nanoformulations at 100 nM SSO concentration for 24 h. After this time, the luciferase activity was measured. Delivery efficacy was expressed as a fold-increase over the values from untreated (UT) cells (ie. fold increase in splice correction).

HEK293T Stop-Light cells [2] = assay: Cas9 RNP delivery, stop-light reporter gene editing (eGFP by FACS); type: cell-based; details: FIG. 5B
Excerpt: Delivery of proteins is another important modality for the peptides of the present invention. In order to investigate the ability of the peptides to deliver protein, a stop-light reporter system was employed. FIG. 5A illustrates the stop-light reporter system, which is a quick and simple system to evaluate indel formation in stably transduced cells. Cells are transfected with a construct containing an mCherry gene followed by two enhanced green fluorescent protein (eGFP) genes that are shifted out of frame by +1 and +2 nucleotides, respectively. The mCherry gene is constituently expressed, while the eGFP genes are only expressed if a double stranded break in the linker creates insertions or deletions of +/−1 or 2 bp. This occurs upon the effective delivery of Cas9 RNP system to the nucleus of cells, which leads to one of the two eGFP genes being in frame and thus expressed. […]
5k HEK293T Stop-Light cells were treated with 50 ng ([…]) Cas9 that was formulated with various peptides at different peptide-to-Cas9 RNP MRs (50:1-100:1). After 72 h of treatment, eGFP expression was analysed by fluorescence-activated cell sorting (FACS) analysis. Gene editing efficiency was calculated as a percentage of cells in the cell population where eGFP expression was induced by the treatment.

HEK293T Stop-Light cells [3] = assay: Effect of additives on Cas9 RNP delivery, stop-light reporter; type: cell-based; details: FIG. 11
Experimental: In order to investigate the effect of additives on the efficacy of the peptides/nanoparticles of the invention a range of different additives were tested and the effect on delivery of Cas9 ribonuncleoprotein (RNP) was examined using the same stop-light reporter system described above and illustrated in FIG. 5.
Peptides Oct215 or Oct2815 were tested. Cas9 RNP was formulated in HBG buffer (HEPES buffered glucose) with either glycerol, PEG, PVP10, PVP55, PVA18, PVA40 or PVA-PEG. Oct215 or 2815 was added and incubated at room temperature for 40 min to allow peptide nanoparticles to form (1.1:1 sgRNA to Cas9 and 1:150 RNP:CPP).
Following incubation HEK293T Stop-Light cells were treated with the peptide RNP complex (25 ng Cas9 added to each well). After 72 h of treatment, eGFP expression was analysed by fluorescence-activated cell sorting (FACS) analysis. Gene editing efficiency was calculated as the percentage of eGFP expressing cells in the viable mCherry expressing population, mCherry being the marker for reporter construct expression and eGFP for gene editing of said construct.

accumulation of SSO in liver in comparison with SSO alone (fold enrichment) [1]: 2.5 fold
accumulation of SSO in lungs in comparison with SSO alone (fold enrichment) [1]: 3.5 fold
accumulation of SSO in spleen in comparison with SSO alone (fold enrichment) [1]: 5 fold
Molecule: C=CCCCCCC[C@@](C)(NC(=O)[C@H](C)NC(=O)[C@H](CCCCN)NC(=O)[C@H](C)NC(=O)[C@H](CC(C)C)NC(=O)[C@H](CCCCN)NC(=O)[C@@](C)(CCCCCCC=C)NC(=O)[C@@H](N)CC(C)C)C(=O)N[C@@H](C)C(=O)N[C@@H](CCCCN)C(=O)N[C@@H](CC(C)C)C(=O)N[C@@H](CC(C)C)C(=O)N[C@@H](CCCCN)C(=O)N[C@@H](C)C(=O)N[C@@](C)(CCCCCCC=C)C(=O)N[C@@H](C)C(=O)N[C@@H](CCCCN)C(=O)N[C@@H](C)C(=O)N[C@@H](CC(C)C)C(N)=O [Oct2815, H-L A(R8) K L A K A A(R8) A K L L K A A(S8) A K A L-NH2] (H-L[R8]KLAKA[R8]AKLLKA[S8]AKAL-NH2)
side-effects at very high dosing (mice): without any apparent side-effects

Molecule: H-L A K L A K A A(R8) A K L L K A A(S5) A K A L-NH2 (H-LAKLAKA[R8]AKLLKA[S5]AKAL-NH2; staple 8-15; SMILES CC(C)C[C@H](NC(=O)[C@H](C)NC(=O)[C@H](CCCCN)NC(=O)[C@H](C)NC(=O)[C@]1(C)CCCC=CCCCCCC[C@@](C)(NC(=O)[C@H](C)NC(=O)[C@H](CCCCN)NC(=O)[C@H](C)NC(=O)[C@H](CC(C)C)NC(=O)[C@H](CCCCN)NC(=O)[C@H](C)NC(=O)[C@@H](N)CC(C)C)C(=O)N[C@@H](C)C(=O)N[C@@H](CCCCN)C(=O)N[C@@H](CC(C)C)C(=O)N[C@@H](CC(C)C)C(=O)N[C@@H](CCCCN)C(=O)N[C@@H](C)C(=O)N1)C(N)=O) [compound 246]
SSO delivery and splice switching activity (fold increase in splice correction, luciferase activity) (HeLa pluc705 cells): able to mediate effective SSO delivery and induce strong splice switching activity

Molecule: H-L A K L A K A A(R8) A K L L K A A(S8) A K A L-NH2 (H-LAKLAKA[R8]AKLLKA[S8]AKAL-NH2; staple 8-15; SMILES CC(C)C[C@H](NC(=O)[C@H](C)NC(=O)[C@H](CCCCN)NC(=O)[C@H](C)NC(=O)[C@]1(C)CCCCCCC=CCCCCCC[C@@](C)(NC(=O)[C@H](C)NC(=O)[C@H](CCCCN)NC(=O)[C@H](C)NC(=O)[C@H](CC(C)C)NC(=O)[C@H](CCCCN)NC(=O)[C@H](C)NC(=O)[C@@H](N)CC(C)C)C(=O)N[C@@H](C)C(=O)N[C@@H](CCCCN)C(=O)N[C@@H](CC(C)C)C(=O)N[C@@H](CC(C)C)C(=O)N[C@@H](CCCCN)C(=O)N[C@@H](C)C(=O)N1)C(N)=O) [Oct815]
SSO delivery and splice switching activity (fold increase in splice correction, luciferase activity) (HeLa pluc705 cells): able to mediate effective SSO delivery and induce strong splice switching activity
relative potency among peptides (Cas9 RNP gene editing) (HEK293T Stop-Light cells [2]): most potent

Molecule: H-L A(R8) K L A K A A A K L L K A A(S8) A K A L-NH2 (H-L[R8]KLAKAAAKLLKA[S8]AKAL-NH2; staple 2-15; SMILES CC(C)C[C@H](NC(=O)[C@H](C)NC(=O)[C@H](CCCCN)NC(=O)[C@H](C)NC(=O)[C@]1(C)CCCCCCC=CCCCCCC[C@@](C)(NC(=O)[C@@H](N)CC(C)C)C(=O)N[C@@H](CCCCN)C(=O)N[C@@H](CC(C)C)C(=O)N[C@@H](C)C(=O)N[C@@H](CCCCN)C(=O)N[C@@H](C)C(=O)N[C@@H](C)C(=O)N[C@@H](C)C(=O)N[C@@H](CCCCN)C(=O)N[C@@H](CC(C)C)C(=O)N[C@@H](CC(C)C)C(=O)N[C@@H](CCCCN)C(=O)N[C@@H](C)C(=O)N1)C(N)=O) [Oct215]
gene editing efficiency (efficacy of cargo delivery) with PVA-PEG (HEK293T Stop-Light cells [3]; 25 ng Cas9, 1:150 RNP:CPP, HBG buffer with PVA-PEG, 72 h): up to 60%
effect of additives on efficacy (HEK293T Stop-Light cells [3]): enhanced still further by the presence of different additives
